Test results: patent publication US9687429B2, “Antimicrobial compositions containing low concentrations of botanicals” (THE TRUSTEES OF COLUMBIA UNIVERSITY IN THE CITY OF NEW YORK, priority 2007, dated 2017)

How the values were obtained:
[1] = system: S. aureus; experiment: Five-minute kill test of solutions in 10% SDA40-B alcohol and water, colony counts; format: cell-based; conditions: control counts 1 × 10^6 to 5 × 10^6
Experimental: Various concentrations of basil oil and acetic, lactic, and citric acids, separately and in combination, were prepared in 10 percent SDA40-B alcohol and water, and adjusted to 100 percent. Except for citric acid, which was added by weight, all other ingredients were measured by volume. 0.9 ml of each solution were dispensed in sterile culture tubes, in triplicate, and 0.1 ml of a 10^7 cfu/ml S. aureus culture was added to the tubes, vortexed, and then, five minutes later, 9.0 ml of drug inactivating medium was added to each tube. Serial dilutions were made with the drug inactivating medium. 0.5 ml of the dilutions were plated on trypticase soy agar (“TSA”) plates. As a control, water containing 10 percent SDA40-B alcohol was processed in parallel. The plates were incubated at 37° C. for 24-48 hours and then the colony counts were determined.
The same methodology was used to test the antimicrobial activity of combinations of citric acid with other essential oils.
Various concentrations of cinnamon leaf oil and citric acid were dissolved in SDA 40-B alcohol (10%) and water, and adjusted to 100 percent. Except for citric acid, which was added by weight, all other ingredients were measured by volume. 0.9 ml of each solution were dispensed in sterile culture tubes, in triplicate, and 0.1 ml of 10^7 cfu/ml of S. aureus culture was added to the tubes, vortexed, and then, five minutes later, 9.0 ml of drug inactivating medium was added to each tube. Serial dilutions were made with the drug inactivating medium. 0.5 ml of the dilutions were plated on trypticase soy agar (“TSA”) plates. As a control, water containing 10% percent SDA40-B alcohol was processed in parallel. The plates were incubated at 37° C. for 24-48 hours and then the colony counts were determined.
The following experiments were performed to evaluate the antibacterial activity of LG and Citric acid dissolved in alcohol, where the test organism used was S. aureus. Various amounts of LG oil and Citric acid were dissolved in SDA40-B alcohol, and then water was added to result in the EO concentration shown and an alcohol concentration of 10 percent. 0.9 ml of each solution were dispensed in sterile culture tubes, in triplicate, and 0.1 ml of a 10^7 cfu/ml S. aureus culture was added to the tubes, vortexed, and then, five minutes later, 9.0 ml of drug inactivating medium was added to each tube. Serial dilutions were made with drug inactivating medium. 0.5 ml of the dilutions were plated on trypticase soy agar (“TSA”) plates. As a control, water containing 10 percent SDA40-B alcohol was processed in parallel. The plates were incubated at 37° C. for 24-48 hours and then the colony counts were determined.

[2] = system: S. aureus; experiment: Synergistic activity of essential oils and plant extracts with citric acid, log10 reduction from control bacterial counts; format: cell-based; conditions: Table 202, compounds in %, control counts 1×10^7 to 5×10^7
Excerpt: Log10 reduction from control bacterial counts that range from 1×10^7 to 5×10^7.

[3] = system: S. aureus; experiment: Soap rapid kill test (30 second kill) in presence of bovine serum; format: cell-based
Experimental: The antimicrobial activity of the above soap was tested in parallel with commercial Softsoap® containing triclosan (Softsoap® Antibacterial; Colgate-Palmolive). 0.1 ml of a 10^8 cfu/ml culture of each microbe tested was mixed with 0.1 ml of bovine serum and placed in a sterile culture tube. 0.8 ml of the test soap formulation was added to the tube and vortexed for 30 seconds. Then 9.0 ml DNB was added to neutralize the activity of the soap. The tube was then vortexed and serially diluted with DNB. 0.5 ml of the diluted solution was plated on TSA plates. The same soap base lacking cinnamon oil, citric acid, and orange oil, with phosphate buffered saline mixed with the culture, were used as the controls.
The antimicrobial activity of the above soap was tested in parallel with commercial Dial® Antibacterial Hand Soap) containing triclosan. 0.1 ml of a 10^8 cfu/ml culture of each microbe tested was mixed with 0.1 ml of bovine serum and placed in a sterile culture tube. 0.8 ml of the test soap formulation was added to the tube and vortexed for 30 seconds. Then 9.0 ml DNB was added to neutralize the activity of the soap. The tube was then vortexed and serially diluted with DNB. 0.5 ml of the diluted solution was plated on TSA plates. The same soap base lacking cinnamon oil, citric acid, and orange oil, with phosphate buffered saline mixed with the culture, were used as the controls.
The following method was used. A mixture of 0.1 ml of 10^7 cfu/ml of S. aureus culture and 0.1 ml of bovine serum were placed in a sterile culture tube. 0.8 ml of the test soap formulation was added to the tube and vortexed for 30 seconds. 9.0 ml DFN was added to the tube to neutralize the activity of the soap; this tube was then vortexed and serially diluted with DFN. 0.5 ml of the diluted solution was plated on trypticase soy agar plates, incubated at 37° C. for 24-48 hours and the colony counts were determined. Soft Soap® and Dial® soaps containing 0.15% triclosan was also tested similarly at the same time. The soap base without essential oils and Citric acid containing the culture were used as controls.
The following method was used. A mixture of 0.1 ml of 10^7 cfu/ml of S. aureus culture and 0.1 ml of bovine serum were placed in a sterile culture tube. 0.8 ml of the test soap formulation was added to the tube and vortexed for 30 seconds. 9.0 ml DFN was added to the tube to neutralize the activity of the soap; this tube was then vortexed and serially diluted with DFN. 0.5 ml of the diluted solution was plated on trypticase soy agar plates, incubated at 37° C. for 24-48 hrs and the colony counts were determined. Soft Soap® and Dial® soaps containing 0.15% triclosan was also tested similarly at the same time. The soap base without essential oils and citric acid containing the culture were used as controls.
The following method was used. A mixture of 0.1 ml of 10^8 cfu/ml of S. aureus culture and 0.1 ml of bovine serum were placed in a sterile culture tube. 0.8 ml of the test soap formulation was added to the tube and vortexed for 30 seconds. 9.0 ml DFN was added to the tube to neutralize the activity of the soap; this tube was then vortexed and serially diluted with DFN. 0.5 ml of the diluted solution was plated on trypticase soy agar plates, incubated at 37° C. for 24-48 hours and the colony counts were determined.
A mixture of 0.1 ml of 10^7 cfu/ml of S. aureus culture and 0.1 ml of bovine serum were placed in a sterile culture tube. 0.8 ml of the test soap formulation was added to the tube and vortexed for 30 seconds. 9.0 ml DFN was added to the tube to neutralize the activity of the soap; this tube was then vortexed and serially diluted with DFN.

[4] = system: S. aureus; conditions: erythromycin, gentamicin, vancomycin, ciproflaxin, clindamycin, tetracycline; cited from earlier work

## CC(C)=CCCC(C)=CCCC(C)=CCO [0.25% Farnesol]
[1]; Table 106, five minutes
  Log10 Reduction from control bacterial counts: 0 Log10

## O=C(O)CC(O)(CC(=O)O)C(=O)O [1 Citric acid]
[2]
  Log10 Reduction from control bacterial counts: 0.7 Log10

## CC(=O)O [1% Acetic acid (AA)]
[1]; Table 105, five minutes
  Log10 Reduction from control bacterial counts: 0.2 Log10

## O=C(O)CC(O)(CC(=O)O)C(=O)O [1% Citric Acid (CA)]
[1]; Table 105, five minutes
  Log10 Reduction from control bacterial counts: 0.1 Log10

## CC(O)C(=O)O (centres unmarked) [1% Lactic acid (LA)]
[1]; Table 105, five minutes
  Log10 Reduction from control bacterial counts: 2.3 Log10

## CCCCCCCCC(O)CO (centres unmarked) [1,2 decanediol (0.3%)]
[3]; Table 150, 30 seconds, bovine serum, alkanediols 0.3%, control 2 × 10^8-5 × 10^8
  Log10 reduction from control: 0.6 Log10

## CCCCCCCCC(O)CO (centres unmarked) [1,2 decanediol(0.5%)]
[3]; Table 151, 30 second Kill, alkanediols 0.5%, soaps pH 4.5-4.6, control 2 × 10^8-5 × 10^8
  Log10 reduction from control: 1.4 Log10

## CC(C)=CCC/C(C)=C/CC1CCCC1=O (centres unmarked) [apritone]
[4]
  effect on susceptibility of S. aureus to antibiotics (in words): enhanced the susceptibility of S. aureus

## CC(C)=CCC[C@](C)(O)C1CC=C(C)CC1 (some centres unmarked) [bisabolol]
[4]
  effect on susceptibility of S. aureus to antibiotics (in words): enhanced the susceptibility of S. aureus

## O=C(O)CC(O)(CC(=O)O)C(=O)O [citric acid]
[3]; bovine serum
  antibacterial activity of soap, 30 second kill (in words): enhance the activity of soaps containing triclosan

## CCCCCCCCC(O)CO (centres unmarked) [decanediol, 1,2 decanediol]
[3]; bovine serum
  antibacterial activity of soap, 30 second kill (in words): enhances the activity of Dial®-T Soap+LG-O-Cit 4

## C=CCc1ccc(O)c(OC)c1 [eugenol]
[3]; bovine serum
  antibacterial activity of soap, 30 second kill (in words): improved the antimicrobial effect

## CC(C)=CCCC(C)=CCCC(C)=CCO [farnesol]
[4]
  effect on susceptibility of S. aureus to antibiotics (in words): enhanced the susceptibility of S. aureus

## C=CC(C)(O)CCC=C(C)CCC=C(C)C (centres unmarked) [nerolidol]
[4]
  effect on susceptibility of S. aureus to antibiotics (in words): enhanced the susceptibility of S. aureus
